From PMC3032886, “Cell-Penetrant, Nanomolar O-GlcNAcase Inhibitors Selective against Lysosomal Hexosaminidases” (Chemistry & Biology, 2010)
Like-named read-outs stand apart in the source and are kept apart here.

Key:
endogenous hOGA [1] = target: T1, endogenous hOGA (Homo sapiens, UniProt O60502); assay: Cellular O-GlcNAcylation western blot (CTD110.6 antibody), densitometry; type: cell-based; conditions: HEK293 cells, 6 hr; for EC50: densitometry, read-out: EC50 increase of cellular O-GlcNAcylation (western blot)
T1 construct: activity on endogenous hOGA in a cell-based assay with HEK293 cells; endogenous in cells; host or cells: HEK293
T1 sequence (O60502 1-916): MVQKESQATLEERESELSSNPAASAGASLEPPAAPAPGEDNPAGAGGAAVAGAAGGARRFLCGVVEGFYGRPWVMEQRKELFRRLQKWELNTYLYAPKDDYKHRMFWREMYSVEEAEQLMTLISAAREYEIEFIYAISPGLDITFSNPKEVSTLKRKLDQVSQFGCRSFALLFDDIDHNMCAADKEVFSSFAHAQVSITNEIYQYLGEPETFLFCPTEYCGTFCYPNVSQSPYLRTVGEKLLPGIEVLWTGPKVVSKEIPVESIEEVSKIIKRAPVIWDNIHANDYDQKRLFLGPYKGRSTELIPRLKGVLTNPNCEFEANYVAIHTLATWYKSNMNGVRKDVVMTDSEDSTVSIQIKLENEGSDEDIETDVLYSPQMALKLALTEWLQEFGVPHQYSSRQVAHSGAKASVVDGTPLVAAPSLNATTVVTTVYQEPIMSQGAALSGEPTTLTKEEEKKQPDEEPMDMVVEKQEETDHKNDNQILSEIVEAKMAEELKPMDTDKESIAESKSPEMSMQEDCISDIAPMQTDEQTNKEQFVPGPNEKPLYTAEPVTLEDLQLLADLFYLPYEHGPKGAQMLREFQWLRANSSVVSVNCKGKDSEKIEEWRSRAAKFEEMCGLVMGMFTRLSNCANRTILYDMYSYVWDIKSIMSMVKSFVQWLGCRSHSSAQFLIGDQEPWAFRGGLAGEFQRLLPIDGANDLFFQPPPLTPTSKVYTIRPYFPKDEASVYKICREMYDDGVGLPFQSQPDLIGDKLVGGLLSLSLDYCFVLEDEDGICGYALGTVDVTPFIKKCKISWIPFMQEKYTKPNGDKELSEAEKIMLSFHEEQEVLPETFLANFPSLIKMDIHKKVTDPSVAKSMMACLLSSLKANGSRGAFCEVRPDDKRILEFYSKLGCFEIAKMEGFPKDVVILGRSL
Procedure: (§1) The novel GlcNAcstatin derivatives were investigated for their activity on endogenous hOGA in a cell-based assay with HEK293 cells. […] Furthermore, we determined the EC50 of GlcNAcstatins G and H by O-GlcNAc microscopy assay (Figure 3B; see Figure S1 available online). Elevated total O-GlcNAc levels in HEK293 cells were quantified and normalized over a reference DAPI signal.
For the O-GlcNAc western blots, HEK293 cells were cultured and treated with GlcNAcstatin derivatives as described previously ([Dorfmueller et al., 2009]). Cell lysates were separated by SDS PAGE, and O-GlcNAcylation was detected by western blotting with the anti-O-GlcNAc CTD110.6 antibody and quantified ([Dorfmueller et al., 2009]). To calculate the EC50 values of GlcNAcstatins C, F, and G, the data, background corrected with the untreated cells, were plotted against the inhibitor concentrations using the program GraphPad Prism (http://www.graphpad.com).

CpOGA-wild-type [2] = target: T2, CpOGA-wild-type (Clostridium perfringens, UniProt Q0TR53); conditions: cited from earlier work
hOGA = target: T3, hOGA (Homo sapiens, UniProt O60502); assay: hOGA steady-state kinetics, fluorogenic assay, competitive inhibition fit; type: biochemical
T3 construct: made in house
T3 sequence (O60502 1-916): T1 sequence (O60502 1-916)

hHexA/B [3] = assay: hHexA/B inhibition, fluorogenic 4MU-NAG substrate; type: biochemical, human; conditions: for Ki: read-out: Ki hHex A/B
CpOGA-wild-type [4] = target: T2, CpOGA-wild-type; assay: biochemical; parameters: species or system C. perfringens
endogenous hOGA [5] = target: T1, endogenous hOGA; assay: O-GlcNAc microscopy assay (RL2 immunostaining, IN Cell Analyzer); type: cell-based; conditions: HEK293 cells, 6 hr, normalized over DAPI; read-out: EC50 total O-GlcNAc levels (microscopy assay)
Procedure: as §1
For the microscopy studies, HEK293 cells were seeded in clear flat-bottom 96 well assay plates (Corning 3340) and grown for 12 hr at 37°C under 5% CO2. Cells were treated with concentrations of GlcNAcstatins G and H (1% final DMSO concentration) for 6 hr. Cells were washed twice with 50 μl PBS and fixed in 3.7% formaldehyde for 10 min at 37°C. After washing with TBST (0.1% Triton X-100) and permeabilized for further 10 min, the cells were blocked with 2% BSA and 0.1% normal donkey serum in TBST for 1 hr at RT, followed by washing twice with TBST. Cells were immunostained with the RL2 O-GlcNAc antibody (1/500) for 12 hr at 4°C and fluorescent secondary (1/500) for 1 hr at RT. Cells were further washed twice with TBS before incubation with DAPI (5 μg/ml) and CellMask (1/25000). Cells were washed twice with TBS and stored in 50 μl PBS. Images were taken and analyzed with the IN Cell Analyzer 1000 system (GE Healthcare).

hHexA/B [6] = conditions: read-out: Ki hHex A/B; cited from earlier work

T2 sequence (Q0TR53 31-624 limits assumed): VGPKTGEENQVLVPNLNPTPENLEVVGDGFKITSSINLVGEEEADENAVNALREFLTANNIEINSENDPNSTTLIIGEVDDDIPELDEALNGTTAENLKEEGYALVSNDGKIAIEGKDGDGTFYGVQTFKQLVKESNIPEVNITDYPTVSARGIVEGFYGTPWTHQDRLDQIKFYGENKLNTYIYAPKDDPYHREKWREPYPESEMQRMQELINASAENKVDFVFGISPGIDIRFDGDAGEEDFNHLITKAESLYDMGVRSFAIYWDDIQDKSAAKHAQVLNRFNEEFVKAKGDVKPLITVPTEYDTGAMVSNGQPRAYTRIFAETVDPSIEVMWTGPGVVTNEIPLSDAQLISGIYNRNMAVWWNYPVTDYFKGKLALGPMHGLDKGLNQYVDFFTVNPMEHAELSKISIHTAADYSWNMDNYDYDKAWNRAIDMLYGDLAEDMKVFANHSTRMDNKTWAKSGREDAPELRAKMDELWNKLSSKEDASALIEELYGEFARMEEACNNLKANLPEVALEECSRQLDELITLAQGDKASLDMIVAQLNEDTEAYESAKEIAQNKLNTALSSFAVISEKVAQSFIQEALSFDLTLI

Compound	EC50 (endogenous hOGA [1]) [µM]	Ki (hOGA; physiological pH 7.3) [µM]	Ki (hHexA/B [3]) [µM]	Ki (CpOGA-wild-type [4]) [pM]	EC50 (endogenous hOGA [5]) [µM]	Ki (hHexA/B [6]) [µM]	other results
CC(C)C(=O)N[C@H]1c2nc(CCc3ccccc3)cn2[C@H](CO)[C@@H](O)[C@@H]1O [GlcNAcstatin C]	0.02	0.0032 ± 0.0009	0.6 ± 0.1	–	–	–	Ki (CpOGA-wild-type [2]): 4.6 ± 0.2 pM; pH optimum of hOGA inhibition (hOGA; McIlvaine buffer, pH range 4.9–8.1, 1/Ki versus pH): 6.6; Ki (hOGA; pH 6.6 (maximum potency)): 0.0029 µM
O=C(CCS)N[C@H]1c2nc(CCc3ccccc3)cn2[C@H](CO)[C@@H](O)[C@@H]1O [GlcNAcstatin F]	0.29	0.0112 ± 0.0014	11 ± 0.6	3.2 ± 0.2	–	–	–
C=CC=CC(=O)NC1c2nc(CCc3ccccc3)cn2C(CO)C(O)C1O (stereo not drawn) [GlcNAcstatin G]	0.02	0.0041 ± 0.0007	> 3700	7.8 ± 0.7	0.003	–	concentration in culture media inducing maximum levels of O-GlcNAcylation (endogenous hOGA [1]; western blot): 100 nM; IC50 (hHexA/B [3]): ~7000 µM
CCCCC(=O)N[C@H]1c2nc(CCc3ccccc3)cn2[C@H](CO)[C@@H](O)[C@@H]1O [GlcNAcstatin H]	–	0.0026 ± 0.0003	–	–	0.042	–	Selectivity (hHexA/B/hOGA) (hOGA; ratio of Ki hHexA/B to Ki hOGA): 35,000; Ki (hHexA/B [3]; Cheng-Prusoff, approximate values obtained after including an artificial 100% inhibition point (footnote d)): 100 ± 30 µM
CC(=O)N[C@H]1/C(=N/OC(=O)Nc2ccccc2)O[C@H](CO)[C@@H](O)[C@@H]1O [PUGNAc, reference compound]	–	–	–	5400 ± 400	–	0.036	–
Thiamet-G	–	–	–	–	–	750	–
